Assays:
in vivo = conditions: male, CD-1, mouse, po, 50 mg/kg
[1] = Double-sink PAMPA permeability; format: in vitro ADME; conditions: pH 7.4
[2] = test system: Salmonella typhimurium tester strains TA98 and TA100; experiment: Ames assay for mutagenicity and cytotoxicity screening; format: cell-based; conditions: TA98 and TA100, with and without S-9
CD-1 mice = experiment: Dose range-finding toxicity study in male and female CD-1 mice; conditions: for histopathology: after 7 days oral treatment; for body weights compared to vehicle-treated controls: all treated mice, 7 days oral

| concentration at 24 h (in vivo) | SMILES | Papp at 30 min, 50 μM [1] | Bacterial mutagenicity, AMES test [2] | histopathology (CD-1 mice) | body weights compared to vehicle-treated controls (CD-1 mice) |
| --- | --- | --- | --- | --- | --- |
| < 11.8 nM | CCN(CC)CCCC(C)Nc1ccnc2cc(Oc3ccccc3)ccc12 (centres unmarked) [Compound 1] |  |  |  |  |
|  | CCCN(CCCNc1ccnc2cc(Cl)ccc12)CC1CC1 [Compound 4] | 1110 ± 176 ×10⁻⁶ cm/s | no increase in mutagenicity |  |  |
|  | CCN(CC)CCCC(C)Nc1ccnc2cc(C(F)(F)F)ccc12 (centres unmarked) [Compound 3] | 2700 ± 107 ×10⁻⁶ cm/s |  |  |  |
|  | COc1cccc(CNCCCNc2ccnc3cc(Cl)ccc23)c1O [Compound 20, 2-{[3-(7-Chloro-quinolin-4-ylamino)-propylamino]-methyl}-6-methoxy-phenol] | 1360 ± 214 ×10⁻⁶ cm/s |  | no findings related to the administration of the test articles | remained normal |
|  | Clc1ccc2c(NCCCNCc3cccc4c3OCO4)ccnc2c1 [Compound 18, N-Benzo[1,3]dioxol-4-ylmethyl-N′-(7-chloro-quinolin-4-yl)-propane-1,3-diamine] | 2400 ± 652 ×10⁻⁶ cm/s | no increase in mutagenicity | no findings related to the administration of the test articles | remained normal |

Reference: PMC2866084 (Journal of medicinal chemistry, 2010)
